In PMC9068772, “Discovery of first-in-class nanomolar inhibitors of heptosyltransferase I reveals a new aminoglycoside target and potential alternative mechanism of action” (Scientific Reports, 2022):
Where “and” joins values, the source holds several entries; their conditions need not be identical. Equal entries are not always repeated.

Columns and labels:
HepI [1] = target: T1, HepI (Escherichia coli, UniProt P24173); test: Intrinsic tryptophan fluorescence of HepI; format: binding, E. coli K12; conditions: for Blue shift of HepI tryptophan emission λmax: HepI plus ligand alone, vs apo; for Blue shift of HepI tryptophan emission λmax with ODLA and inhibitor: inhibitor added to HepI•ODLA complex
T1 construct: made in house; host or cells: E. coli One Shot BL-21-AI
T1 sequence (P24173 whole entry): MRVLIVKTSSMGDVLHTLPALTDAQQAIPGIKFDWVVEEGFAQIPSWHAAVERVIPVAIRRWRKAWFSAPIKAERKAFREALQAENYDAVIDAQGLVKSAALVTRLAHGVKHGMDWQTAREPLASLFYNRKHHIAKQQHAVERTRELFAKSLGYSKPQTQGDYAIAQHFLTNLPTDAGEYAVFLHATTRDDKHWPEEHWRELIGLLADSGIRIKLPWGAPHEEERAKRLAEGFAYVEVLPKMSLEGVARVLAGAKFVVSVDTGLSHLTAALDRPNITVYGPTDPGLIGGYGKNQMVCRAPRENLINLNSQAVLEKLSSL
Description: Fluorescence spectra were measured in triplicate at room temperature using 200 μL samples containing 1 μm HepI, in a 10 mm HEPES, 50 mm KCl, and 10 mm MgCl2, pH = 7.5 buffer. Samples were contained in Starna 45-Q-3 cells (minimum volume 200 µL). Substrate and inhibitor concentrations were 100 μM. All measurements were taken using a Fluoromax-4 fluorometer with an excitation slit bandpass of 2 nm and an emission slit bandpass of 3 nm (λex = 290 nm, λem = 310–450 nm). The data was subtracted from blanks, normalized and fit to a lognormal distribution (Eq. 7)[36] to determine the emission maximum (λmax) with in house scripts written in MATLAB R2018A.7 Iλ=Imax·e^-ln2/ln^2ρ·ln^2(a-λ/a-λmax)

[2] = target: T2, Heptosyltransferase I (HepI) WT (Escherichia coli, UniProt P24173); test: HepI inhibition, ADP/NADH coupled assay (wild type); format: biochemical, E. coli K12; conditions: for kcat: HepI WT in presence of inhibitor; for Ki: 10 μM ODLA, inhibitor varied; for Type of inhibition with ODLA: excess ADPH, ODLA varied, Lineweaver–Burk, Dixon, Cornish-Bowden; for Type of inhibition against ADPH: excess ODLA, ADPH varied; for ΔG (kcal/mol) Exp: Gibbs equation with Ki as equilibrium constant
T2 construct: made in house; host or cells: E. coli One Shot BL-21-AI
T2 sequence (P24173 whole entry): as above
Description: (§1) As previously reported[11],[14],[15], an ADP/NADH coupled assay was used to monitor HepI activity by monitoring the absorbance change at 340 nm at 37 °C on a Cary Bio 100 UV–Vis Spectrometer. Under normal conditions, the assay buffer was composed of 50 mM HEPES, 50 mM KCl, 10 mM MgCl2, pH 7.5. The coupled enzyme reaction additionally contained 100 μM phosphoenolpyruvate, 100 μM NADH, 100 μM dithiothreitol (DTT) and 0.05 U/μL of both pyruvate kinase and lactate dehydrogenase. 100 μM ADPH was used when ODLA concentration was varied and 100 μM ODLA was used when ADPH was varied. Once a stable baseline was established (~ 5 min), the reaction was initiated by addition of HepI to a final concentration of 50 nM or 100 nM (for high and lower substrate concentrations respectively) and all reported reaction rates are after background subtraction. When running 12 samples at once, plastic cuvette stirs and a repeat pipettor was used to inject 200 μL enzyme. Inhibition of HepI was monitored using the same ADP/NADH coupled assay, all conditions of the assay were the same as previously described unless otherwise stated. Ki values for each of the compounds were determined by varying compound final concentration from 100 μm to 10 nm, and a final concentration of 10 μM ODLA. Competition assays against ADPH were done with excess ODLA (100 μM) and varying ADPH from 2–0.25 μM. Competition assays against ODLA were done with excess ADPH (100 μM) and varying ODLA from 2–0.25 μM. Reactions were started with addition of enzyme and inhibitor was varied from 30–0.01 μM. Kinetics were fit to Lineweaver-Burke (Eq. 1), competitive (Eq. 2), non-competitive (Eq. 3), mixed (Eq. 4), Dixon (Eq. 5), or Cornish-Bowden (Eq. 6) models. All fitting and plotting was done through MATLAB R2018A.1 1/V1/[S]=KM/Vmax[S]+1/Vmax 2 V[S]=Vmax[S]/KM1+[I]/Ki+[S] 3 V[S]=Vmax[S]/1+([I]/Ki)/KM+[S] 4 V[S]=Vmax[S]/KM(1+[I]/Ki)+[S](1+[I]/αKi) 5 1/V[I]=KM1+I/Ki+[S]1+I/αKi/Vmax[S] 6 [S]/V[I]=KM1+I/Ki+[S]1+I/αKi/Vmax

HepI R60A = target: T3, HepI R60A (Escherichia coli, UniProt P24173, R60A); test: HepI inhibition, ADP/NADH coupled assay (R60A mutant); format: biochemical, E. coli K12; conditions: for ΔΔG (kcal/mol) Exp: Arg60Ala relative to WT; for ΔG (kcal/mol) Exp: Arg60Ala, from Ki; for kcat: HepI R60A in presence of inhibitor
T3 construct: made in house; host or cells: E. coli One Shot BL-21-AI (stated for HepI in general)
T3 sequence (P24173 whole entry R60A): as the sequence (P24173 whole entry) above, with R60A counted along it
Description: as §1

HepI [3] = target: T1, HepI; test: Circular dichroism thermal melt of HepI; format: binding, E. coli K12; conditions: CD melt; for Increase in unfolding compared to apo HepI: HepI plus inhibitor, no ODLA; for Difference in melting temperature of HepI•ODLA complex caused by inhibitor: destabilization of HepI•ODLA
Description: Circular dichroism melt experiments were performed in a Jasco J-810 spectropolarimeter in Starna 21-Q-2 cells (minimum volume 400 µL) sealed with Teflon tape to prevent evaporation. Parameters include 3 accumulations of data collected between 195–275 nm as a function of temperature (10–95 °C with 5° increments) at a ramp rate of 2°/min and a scanning rate of 50 nm/min. Samples were prepared by diluting a mixture of 5 μM HepI and some combination of 250 μM substrate/product and/or 100 μM inhibitor in a buffer of 10 mM Tris–HCl and 100 mM KCl (pH = 7.5). CD data was analyzed via in house script written in MATLAB R2018A that average a set of triplicate data, normalizes to a percent unfolded (assuming the protein is fully folded at 5 °C) at 222 nm as a function of temperature and fits to a sigmoid curve to determine the melt temperature (TM).

| Compound | Blue shift of HepI tryptophan emission λmax (HepI [1]) | Blue shift of HepI tryptophan emission λmax with ODLA and inhibitor (HepI [1]) | kcat [2] | Ki ([2]; HepI WT) | Type of inhibition with ODLA ([2]; HepI WT) | Type of inhibition against ADPH ([2]; HepI WT) | ΔG (kcal/mol) Exp ([2]; HepI WT) | Ki (HepI R60A) | ΔΔG (kcal/mol) Exp (HepI R60A) | ΔG (kcal/mol) Exp (HepI R60A) | kcat (HepI R60A) | Ki relative to WT (HepI R60A; HepI R60A vs WT) | Increase in unfolding compared to apo HepI (HepI [3]) | Difference in melting temperature of HepI•ODLA complex caused by inhibitor (HepI [3]) | Melting temperature of HepI•ODLA complex with inhibitor (HepI [3]; inhibitor added to HepI•ODLA) | α value, mixed model of inhibition with ODLA ([2]; HepI WT) | Melting temperature (Tm) of HepI with ligand (HepI [3]; HepI plus ligand alone) | Melt of HepI with ADPH and inhibitor (HepI [3]; compared with HepI with ADPH alone) | Extent of unfolding of HepI•ODLA complex with inhibitor (HepI [3]; inhibitor added to HepI•ODLA) |
| --- | --- | --- | --- | --- | --- | --- | --- | --- | --- | --- | --- | --- | --- | --- | --- | --- | --- | --- | --- |
| [H]/N=C(/N)N[C@H]1[C@H](O)[C@@H](O)[C@H](O[C@@H]2O[C@@H](C)[C@](O)(C=O)[C@H]2O[C@@H]2O[C@@H](CO)[C@H](O)[C@@H](O)[C@@H]2NC)[C@@H](N/C(N)=N\[H])[C@@H]1O [Streptomycin] | no changes to the emission spectra | unperturbed | 0.162 ± 0.008 s⁻¹ | 595 ± 90 nM | Non-competitive | non-competitive | -8.5 ± 0.1 kcal/mol | 6.25 ± 5.43 µM | 1.4 ± 0.4 kcal/mol | -7.1 ± 0.4 kcal/mol | 0.149 ± 0.013 s⁻¹ | increased the Ki values an order of magnitude | ~ 20% and 15–20% | not observed | no different from substrate or product alone | – | – | – | – |
| NC[C@H]1O[C@H](O[C@H]2[C@H](O)[C@@H](O[C@H]3O[C@H](CO)[C@@H](O)[C@H](N)[C@H]3O)[C@H](N)C[C@@H]2N)[C@H](N)C[C@@H]1O [Tobramycin] | did not alter the λmax | 6 nm | 0.15 ± 0.005 s⁻¹ | 1100 nM and 1130 nM | Mixed competitive | uncompetitive | -8.1 ± 0.1 kcal/mol | 3.4 ± 0.631 µM | 0.7 ± 0.1 kcal/mol | -7.5 ± 0.1 kcal/mol | 0.111 ± 0.013 s⁻¹ | – | 20% | > 30 °C | ~ 58 °C | greater than one | ~ 37 °C | no changes from HepI with ADPH alone | about 70% |
